The test system of experiment [1] is PAC1. The settings on record: ref 15 (maxadilan); cited from earlier work. An excerpt:
Similarities include initial binding events between the C-terminal domain of the peptide with the extracellular domain (ECD) followed by insertion of the N-terminus of the peptide into the core of the receptor to enable activation, but with differences in binding poses in the C-terminus explaining in part the ligand selectivity of each receptor [13]. Empirica ...

In experiment [2] the test system is PAC1. The experiment in a line: CBS assay in NS-1 cells, endogenous PAC1. Format: cell-based, rat. The settings on record: NS-1 cells expressing CBS, n = 3. On the procedure:
Cell culture reagents were purchased from ThermoFisher Scientific (Waltham, MA) unless otherwise noted. Neuroscreen-1 (NS-1) cells (Cellomics, Halethorpe, MD) were grown on flasks or plates coated with Collagen I (rat tail) as described previously. NS-1 cells were cultured in RPMI-1640 media supplemented with 10% horse serum and 5% heat-inactivated Fetal Bovine Serum (Hyclone, Logan, UT). HEK293 and SH-SY5Y cells were purchased from ATCC (Gaithersburg, MD) and cultured with DMEM medium with 10% FBS. All cell culture medium were supplemented with 2 mM glutamine, 100 U/ml penicillin, and 100 μg/ml streptomycin.
A single clone of the SH-SY5Y cell line stably expressing a cAMP biosensor (SY5Y_CBS) was generated as previously described for HEK293_CBS and NS-1_CBS cells, using the retroviral vector pLHCX containing the cAMP biosensor and a hygromycin resistance gene. […] Single-cell clones were subsequently isolated by limiting dilution and assessed for PACAP-induced cAMP production using concentration-response assays.
The cyclic AMP biosensor (CBS) assay was performed using Gibco CO2-independent medium (ThermoFisher, catalog #18045-088). […] Luminescence was measured using a GloMax plate reader (Promega, Madison, WI).
GraphPad Prism ver. […] EC80 was calculated as the effective concentration of the agonist required to produce 80% of the maximal response. […]

The subject of experiment [3] is human PAC1hop (hPAC1). Kind of experiment: cAMP biosensor (CBS) assay, agonist responses in HEK293_CBS_hPAC1. Format: cell-based. Particulars: HEK293_CBS_hPAC1, IBMX pretreated, luminescence. From the text: A single clone of the SH-SY5Y cell line stably expressing a cAMP biosensor (SY5Y_CBS) was generated as previously described for HEK293_CBS and NS-1_CBS cells, using the retroviral vector pLHCX containing the cAMP biosensor and a hygromycin resistance gene. A HEK293_CBS_hPAC1 cell clone was generated by transducing HEK293_CBS cells with the lentiviral vector pLX304 (GeneCopoeia, Rockville, MD) encoding the human PAC1hop (PAC1; GenBank accession no. BC143679) and a blasticidin resistance gene . Following transduction, cells were selected with the appropriate antibiotics (hygromycin or blasticidin) for 2 weeks. Single-cell clones were subsequently isolated by limiting dilution and assessed for PACAP-induced cAMP production using concentration-response assays.
The cyclic AMP biosensor (CBS) assay was performed using Gibco CO2-independent medium (ThermoFisher, catalog #18045-088). HEK293_CBS_hPAC1 or SY5Y_CBS cells were seeded in 96-well black/clear-bottom plates (MidSci, Fenton, MO) at a density of 6,000 cells per well and incubated overnight. The following day, the medium in each well was aspirated and replaced with fresh medium containing 1.5 mg/mL D-luciferin potassium salt substrate (Gold Biotechnology, St. Louis, MO) and 500 μM isobutyl-1-methylxanthine (IBMX), followed by incubation at 37 °C for 1 hour. Cells were then pre-treated with antagonists for 10 minutes before the addition of agonists (PACAP or forskolin). Plates were incubated at 37 °C for 1 hour, then brought to room temperature and equilibrated for 30 minutes. Luminescence was measured using a GloMax plate reader (Promega, Madison, WI).
GraphPad Prism ver. 9.0 or 10.0 (GraphPad Software Inc, Boston, MA) was used for data analysis. Concentration response curves were created using a four parameter logistic regression model. EC80 and IC50 parameters were obtained using non-linear regression curve fitting tools. EC80 was calculated as the effective concentration of the agonist required to produce 80% of the maximal response. […]

No end group written: not given here.

As to maxadilan, the “activity at PAC1” value in experiment [1] was “agonist”.

With “pituitary adenylate cyclase-activating polypeptide (PACAP) 1-38 (HSDGIFTDSYSRYRKQMAVKKYLAAVLGKRYKQRVKNK-NH2) [P38, endogenous PAC1 agonist]”, the “activation of endogenous PAC1” value in experiment [2] is recorded as “can be activated by P38”. In addition, in experiment [3], the “agonist response (cAMP)” value was “highly responsive to P38 and P27 with similar potency and efficacy”.
